Assay results from PubChem BioAssay AID602176 (NMMLSC, 2012).
Calls of active or inactive are those of the source. No rule for the calls is given here.

Molecular target: Botulinum neurotoxin type A (Clostridium botulinum (strain Hall / ATCC 3502 / NCTC 13319 / Type A)) (UniProt P0DPI1)
Test: Confirmatory dose response, Clostridium botulinum neurotoxin type A protease inhibitors, flow cytometry (AID 602176)
Details: multiplex microsphere protease substrate cleavage

Sequence of Botulinum neurotoxin type A (Clostridium botulinum (strain Hall / ATCC 3502 / NCTC 13319 / Type A)) (P0DPI1 whole entry, looked up): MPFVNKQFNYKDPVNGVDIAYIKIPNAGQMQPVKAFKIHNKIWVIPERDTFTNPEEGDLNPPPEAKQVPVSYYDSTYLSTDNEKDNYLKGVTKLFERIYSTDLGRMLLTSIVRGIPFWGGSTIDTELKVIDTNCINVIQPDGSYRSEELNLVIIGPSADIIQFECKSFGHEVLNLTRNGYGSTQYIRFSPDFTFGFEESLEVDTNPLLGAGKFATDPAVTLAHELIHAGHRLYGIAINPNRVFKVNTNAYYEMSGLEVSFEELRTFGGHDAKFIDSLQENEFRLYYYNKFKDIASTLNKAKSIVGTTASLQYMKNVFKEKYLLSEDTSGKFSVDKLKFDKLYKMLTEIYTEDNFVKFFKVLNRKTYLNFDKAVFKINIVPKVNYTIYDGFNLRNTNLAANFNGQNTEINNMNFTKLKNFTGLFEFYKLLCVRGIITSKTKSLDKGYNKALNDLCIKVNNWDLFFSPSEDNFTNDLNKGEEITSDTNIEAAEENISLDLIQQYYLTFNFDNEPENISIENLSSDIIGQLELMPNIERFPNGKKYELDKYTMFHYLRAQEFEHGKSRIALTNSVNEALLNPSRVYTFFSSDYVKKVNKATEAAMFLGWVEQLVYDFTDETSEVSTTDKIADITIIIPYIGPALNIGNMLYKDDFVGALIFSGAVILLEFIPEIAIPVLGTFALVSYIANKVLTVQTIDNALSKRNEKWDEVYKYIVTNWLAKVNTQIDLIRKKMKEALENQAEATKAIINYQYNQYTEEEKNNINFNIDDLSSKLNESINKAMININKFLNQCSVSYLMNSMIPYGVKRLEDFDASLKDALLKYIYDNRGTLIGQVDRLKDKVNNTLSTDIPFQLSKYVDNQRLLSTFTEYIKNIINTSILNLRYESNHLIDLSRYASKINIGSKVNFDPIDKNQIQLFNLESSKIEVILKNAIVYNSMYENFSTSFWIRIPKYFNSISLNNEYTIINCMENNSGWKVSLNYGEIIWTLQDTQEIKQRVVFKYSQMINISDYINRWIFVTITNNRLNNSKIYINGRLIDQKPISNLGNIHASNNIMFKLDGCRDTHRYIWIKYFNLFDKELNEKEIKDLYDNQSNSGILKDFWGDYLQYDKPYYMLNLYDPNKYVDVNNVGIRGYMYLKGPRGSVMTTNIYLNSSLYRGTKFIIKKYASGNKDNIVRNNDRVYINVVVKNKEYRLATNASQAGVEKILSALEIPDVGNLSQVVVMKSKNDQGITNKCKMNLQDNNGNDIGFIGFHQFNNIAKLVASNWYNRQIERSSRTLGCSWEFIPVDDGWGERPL

Structure (SMILES): Oc1[nH]c(N=C2N=c3ccccc3=N2)c2ccccc12
- EC50: > 20 µM (inactive)
